Square brackets hold non-standard residues; d marks the D form. Peptide text beside a SMILES is read from it. * marks the point of attachment. Propanoyl(3-indol-3-yl) = O=C(CCc1c[nH]c2ccccc12)*; 1Nal = N[C@@H](Cc1cccc2ccccc12)C(=O)O; Arg(Me) = CNC(=N)NCCC[C@H](N)C(=O)O; X3 = NC(=S)[C@H](Cc1ccccc1)N*; Orn = NCCC[C@H](N)C(=O)O; azaGly = NNC(=O)O
Assays:
hOT7T175 [1] = biological target: T1, hOT7T175 (Homo sapiens, UniProt Q969F8, L364H); assay: hOT7T175 receptor binding activity: binding inhibition of Cy-5-labeled metastin (40-54) on hOT7T175-expressed CHO cells; set-up: expressed in transfected cells; host or cells: CHO cells
T1 sequence (Q969F8 whole entry L364H): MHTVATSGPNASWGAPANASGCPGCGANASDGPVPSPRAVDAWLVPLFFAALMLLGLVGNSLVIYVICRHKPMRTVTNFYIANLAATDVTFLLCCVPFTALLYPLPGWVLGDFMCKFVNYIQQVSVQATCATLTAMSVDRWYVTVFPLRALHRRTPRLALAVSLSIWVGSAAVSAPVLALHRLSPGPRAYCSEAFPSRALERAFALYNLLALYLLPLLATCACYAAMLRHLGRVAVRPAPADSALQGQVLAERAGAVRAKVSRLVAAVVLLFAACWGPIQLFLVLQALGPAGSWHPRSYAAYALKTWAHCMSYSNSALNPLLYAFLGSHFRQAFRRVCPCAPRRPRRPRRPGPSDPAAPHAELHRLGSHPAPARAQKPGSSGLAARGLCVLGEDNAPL

hOT7T175 [2] = biological target: T1, hOT7T175; assay: Intracellular Ca ion level-increasing activity using FLIPR in hOT7T175/CHO; format: cell-based; set-up: expressed in transfected cells; host or cells: CHO/dhfr- cells, obtained from ATCC; settings: relative, Metastin (1-54) = 1

| SMILES | IC50 (hOT7T175 [1]) | Specific Activity (intracellular Ca ion level-increasing activity) (hOT7T175 [2]) |
| --- | --- | --- |
| CNC(=N)NCCC[C@H](NC(=O)[C@H](CC(C)C)NC(=O)NNC(=O)[C@H](Cc1ccccc1)NC(=O)[C@H](CO)NC(=O)[C@H](CC(N)=O)NC(=O)[C@@H](N)Cc1c[nH]c2ccccc12)C(=O)N[C@@H](Cc1ccccc1)C(N)=O [Compound No. 271, Trp-Asn-Ser-Phe-AzaGly-Leu-Arg(Me)-Phe-NH2] (H-WNSF[azaGly]L[Arg(Me)]F-NH2; N-terminus assumed) | 120 nM | 1 |
| COc1ccc(C[C@H](NC(=O)[C@H](CCCNC(=N)N)NC(=O)[C@H](CC(C)C)NC(=O)CNC(=O)[C@H](Cc2ccccc2)NC(=O)[C@H](CO)NC(=O)[C@H](CC(N)=O)NC(=O)[C@H](Cc2c[nH]c3ccccc23)NC(=O)[C@H](CC(N)=O)NC(=O)[C@@H](N)Cc2ccc(O)cc2)C(N)=O)cc1 [Compound No. 18] (H-YNWNSFGLRY(Me)-NH2) | 7.7 nM | 1 |
| CC(C)C[C@H](NC(=O)CNC(=O)[C@H](Cc1ccccc1)NC(=O)[C@H](CO)NC(=O)[C@H](CC(N)=O)NC(=O)[C@H](Cc1c[nH]c2ccccc12)NC(=O)[C@H](CC(N)=O)NC(=O)[C@H](N)Cc1ccc(O)cc1)C(=O)N[C@@H](CCCNC(=N)N)C(=O)N[C@@H](Cc1ccccc1)C(N)=S [Compound No. 146] (H-[dY]NWNSFGLR-X3) | 370 nM | 10 |
| CNC(=N)NCCC[C@H](NC(=O)[C@H](CC(C)C)NC(=O)NNC(=O)[C@H](Cc1ccccc1)NC(=O)[C@H](CO)NC(=O)[C@H](CC(N)=O)NC(=O)[C@H](Cc1c[nH]c2ccccc12)NC(=O)[C@@H](CC(N)=O)NC(=O)[C@H](N)Cc1ccc(O)cc1)C(=O)N[C@@H](Cc1ccccc1)C(N)=O [Compound No. 237, D-Tyr-D-Asn-Trp-Asn-Ser-Phe-AzaGly-Leu-Arg(Me)-Phe-NH2] | 27 nM | 3 |
| CC(C)C[C@H](NC(=O)CNC(=O)[C@H](Cc1ccccc1)NC(=O)[C@H](CO)NC(=O)[C@H](CC(N)=O)NC(=O)[C@H](Cc1c[nH]c2ccccc12)NC(=O)[C@H](CC(N)=O)NC(=O)[C@@H](N)Cc1ccc(O)cc1)C(=O)N[C@@H](CCCN)C(=O)N[C@@H](Cc1ccccc1)C(N)=O [Compound No. 314] (H-YNWNSFGL[Orn]F-NH2) | 470 nM | 1 |
| CNC(=N)NCCC[C@H](NC(=O)[C@H](CC(C)C)NC(=O)NNC(=O)[C@H](Cc1ccccc1)NC(=O)[C@H](CO)NC(=O)[C@H](CC(N)=O)NC(=O)CCc1c[nH]c2ccccc12)C(=O)N[C@@H](Cc1ccccc1)C(N)=O [Compound No. 260, 3-(3-Indolyl)propionyl-Asn-Ser-Phe-AzaGly-Leu-Arg(Me)-Phe-NH2] ({Propanoyl(3-indol-3-yl)}-NSF[azaGly]L[Arg(Me)]F-NH2) | 320 nM | 5 |
| CNC(=N)NCCC[C@H](NC(=O)[C@@H](NC(=O)CNC(=O)[C@H](Cc1ccccc1)NC(=O)[C@H](CO)NC(=O)[C@H](CC(N)=O)NC(=O)[C@H](Cc1c[nH]c2ccccc12)NC(=O)[C@H](CC(N)=O)NC(=O)[C@H](N)Cc1ccc(O)cc1)C(C)C)C(=O)N[C@@H](Cc1ccccc1)C(N)=O [Compound No. 213] (H-[dY]NWNSFGV[Arg(Me)]F-NH2) | 190 nM | 2 |
| CNC(=N)NCCC[C@H](NC(=O)[C@H](CC(C)C)NC(=O)CNC(=O)[C@H](Cc1ccccc1)NC(=O)[C@H](CO)NC(=O)[C@H](CC(N)=O)NC(=O)[C@H](CO)NC(=O)[C@H](CC(N)=O)NC(=O)[C@H](N)Cc1ccc(O)cc1)C(=O)N[C@@H](Cc1ccccc1)C(N)=O [Compound No. 170] (H-[dY]NSNSFGL[Arg(Me)]F-NH2; N-terminus assumed) | 260 nM | 1 |
| CC(C)C[C@H](NC(=O)CNC(=O)[C@H](Cc1ccccc1)NC(=O)[C@H](CO)NC(=O)[C@H](CC(N)=O)NC(=O)[C@H](Cc1c[nH]c2ccccc12)NC(=O)[C@H](CC(N)=O)NC(=O)[C@@H](N)Cc1ccc(O)cc1)C(=O)N[C@@H](CCCNC(=N)N)C(=O)N[C@@H](Cc1cccc(C(F)(F)F)c1)C(N)=O [Compound No. 200] | 340 nM | 10 |
| CNC(=N)NCCC[C@H](NC(=O)[C@H](CC(C)C)NC(=O)NNC(=O)[C@H](Cc1ccccc1)NC(=O)[C@H](CO)NC(=O)[C@H](CC(N)=O)NC(=O)[C@H](Cc1c[nH]c2ccccc12)NC(C)=O)C(=O)N[C@@H](Cc1ccccc1)C(N)=O [Compound No. 272, Acetyl-Trp-Asn-Ser-Phe-AzaGly-Leu-Arg(Me)-Phe-NH2] (Ac-WNSF[azaGly]L[Arg(Me)]F-NH2) | 540 nM | 2 |
| CNC(=N)NCCC[C@H](NC(=O)[C@H](CC(C)C)NC(=O)NNC(=O)[C@H](Cc1ccccc1)NC(=O)[C@H](CO)NC(=O)[C@H](CC(N)=O)NC(=O)[C@H](C)NC(=O)[C@H](CC(N)=O)NC(=O)[C@H](N)Cc1ccc(O)cc1)C(=O)N[C@@H](Cc1ccccc1)C(N)=O [Compound No. 235, D-Tyr-Asn-Ala-Asn-Ser-Phe-AzaGly-Leu-Arg(Me)-Phe-NH2] (H-[dY]NANSF[azaGly]L[Arg(Me)]F-NH2) | 100 nM | 1 |
| CNC(=N)NCCC[C@H](NC(=O)[C@H](CC(C)C)NC(=O)NNC(=O)[C@H](Cc1ccccc1)NC(=O)[C@H](CO)NC(=O)[C@H](CC(N)=O)NC(=O)[C@H](Cc1cccc2ccccc12)NC(=O)[C@H](CC(N)=O)NC(=O)[C@H](N)Cc1ccc(O)cc1)C(=O)N[C@@H](Cc1ccccc1)C(N)=O [Compound No. 245, D-Tyr-Asn-Nal(1)-Asn-Ser-Phe-AzaGly-Leu-Arg(Me)-Phe-NH2] (H-[dY]N[1Nal]NSF[azaGly]L[Arg(Me)]F-NH2) | 98 nM | 1 |
| CC(C)C[C@H](NC(=O)CNC(=O)[C@H](Cc1ccccc1)NC(=O)[C@H](CO)NC(=O)[C@H](CC(N)=O)NC(=O)[C@H](Cc1c[nH]c2ccccc12)NC(=O)[C@H](CC(N)=O)NC(=O)[C@@H](N)Cc1ccc(O)cc1)C(=O)N[C@@H](CCCNC(=N)N)C(=O)N[C@@H](Cc1ccc(Cl)cc1)C(N)=O [Compound No. 130] | 42 nM | 10 |
| CC(C)C[C@H](NC(=O)CNC(=O)[C@H](Cc1cccc2ccccc12)NC(=O)[C@H](CO)NC(=O)[C@H](CC(N)=O)NC(=O)[C@H](Cc1c[nH]c2ccccc12)NC(=O)[C@H](CC(N)=O)NC(=O)[C@@H](N)Cc1ccc(O)cc1)C(=O)N[C@@H](CCCNC(=N)N)C(=O)N[C@@H](Cc1ccccc1)C(N)=O [Compound No. 151, Tyr-Asn-Trp-Asn-Ser-Nal(1)-Gly-Leu-Arg-Phe-NH2] (H-YNWNS[1Nal]GLRF-NH2; N-terminus assumed) | 300 nM | 1 |
| CNC(=N)NCCC[C@H](NC(=O)[C@H](CC(C)C)NC(=O)NNC(=O)[C@H](Cc1ccccc1)NC(=O)[C@H](CO)NC(=O)[C@H](CC(N)=O)NC(=O)[C@@H](Cc1c[nH]c2ccccc12)NC(=O)[C@@H](CC(N)=O)NC(=O)[C@H](N)Cc1ccc(O)cc1)C(=O)N[C@@H](Cc1ccccc1)C(N)=O [Compound No. 238, D-Tyr-D-Asn-D-Trp-Asn-Ser-Phe-AzaGly-Leu-Arg(Me)-Phe-NH2] | 49 nM | 1 |
